Tests used:
[1] = system: patients with mild to moderate hypertension; experiment: Eplerenone/HCTZ dose ranging factorial design study (Example D-2); type: in vivo, human
Description: Patients were assessed at weeks 0, 2, 4, and 8. Study assessments at protocol-specified timepoints included blood pressure (BP), heart rate, clinical laboratory analyses, vital signs, physical examinations, 12-lead ECG, and monitoring of adverse events. A total of 614 patients were randomized.

[2] = system: L-NAME/Angiotensin II/NaCl-treated rats; experiment: L-NAME/Angiotensin II/NaCl model of cardiac and renal injury (Example A-1); type: in vivo, Male Wistar rats
Description: Animals. Male Wistar rats (n=44), weighing 200 to 225 grams, and obtained from Charles River Laboratories (Wilmington, Mass.) were used in the study. All animals were housed in a room lighted 12 hours per day at an ambient temperature of 22±1° C. Animals were allowed one week to recover after arrival and had free access to Purina Lab Chow 5001 (Ralston Purina Inc, St. Louis, Mo.) and tap water until the initiation of the experiment. After initiation of the protocols, animals in all groups were placed in individual metabolic cages, handled and weighed daily. Twenty-four hour fluid intake, food intake and urine output were measured daily. […] On day 14 of L-NAME treatment, animals were decapitated, trunk blood was collected into chilled tubes containing ethylene diamine tetraacetic acid and the heart and kidneys were removed, blotted dry and immediately weighed. […] Drugs. Eplerenone was supplied by G.D. Searle Pharmaceuticals (St. […] Dexamethasone was dissolved in sesame oil and administered as a single subcutaneous dose (12 μg/kg/day) every day. This dose of dexamethasone has been reported to, maintain normal weight gain, glomerular filtration rate, and fasting plasma glucose and insulin levels in adrenalectomized rats. Stanton, B., Giebisch G et al. J. Clin. Invest 1985 75:1317-1326. The experiment was concluded on day 14 of L-NAME treatment. […] (Hou J et al. J. Clin. Invest 1995 96:2469-2477. […] This lower dose induced lesions in stroke-prone spontaneously hypertensive rats. (Rocha R et al. […] Dexamethasone, aldosterone and L-NAME were purchased from Sigma Chemical Co. (St. Louis, Mo.). […] Surgical Procedure. […] Bilateral adrenalectomy was performed using a dorsolumbar approach, making separate incisions on each side. […] No post operative deaths occurred. Assays and Analyses. Systolic blood pressure was measured in awake animals by tail-cuff plethysmography using a Natsume KN-210 manometer and tachometer (Peninsula Laboratories Inc, Belmont, Calif.). Rats were warmed at 37° C. for 10 minutes and allowed to rest quietly in a Lucite chamber before measurement of blood pressure. Urinary protein concentration was determined in urine collected on the last day of the experiment using the sulfosalicylic acid turbidity method. […] Plasma aldosterone concentration was determined using a standard radioimmunoassay-kit from Diagnostic Products Co. (Los Angeles, Calif.). Plasma renin activity (“PRA”) was determined by radioimmunoassay detection of generated angiotensin I (DiaSorin Inc., Stillwater, Minn.). Histology. Hearts were stained with collagen specific dye Sirius red for determination of fibrosis as reported elsewhere. (Young M et al. Am. J. Physiol 1995 269:[…]-[…]). Interstitial collagen was determined using an automated image analyzer. The hearts were also stained with hematoxylin and eosin for light microscopic analysis. Two or three slices of different sections of the heart containing both right and left ventricle were analyzed from each animal. […] Glomerular damage, when present, was characterized as the presence of either segmental or global sclerosis with ischemic or thrombotic changes. Renal arterial and arteriolar damage was categorized as the presence of fibrinoid necrosis of the vascular wall. The renal arterial and arteriolar profiles presenting damage were counted and the number of injured vessels per section was divided by the number of glomeruli in the same section in order to normalize for the amount of tissue examined. […] Statistical analysis. Data were tested for normality using the Kolmogorov-Smirnov test. Systolic blood pressure was analyzed using repeated measures-analysis of variance for time and treatment group. One-way analysis of variance was used for normally distributed data with one grouping variable. Post-hoc analysis was performed using Newman Keuls multiple-comparison test. Data that were not normally distributed were analyzed with the Kruskal-Wallis test. […]

[3] = eplerenone 25, 50 or 200 mg daily, HCTZ 12.5 or 25 mg daily, 8 weeks

## COC(=O)[C@@H]1CC2=CC(=O)CC[C@]2(C)[C@@]23O[C@@H]2C[C@@]2(C)[C@@H](CC[C@@]24CCC(=O)O4)[C@H]13 [Eplerenone, Pregn-4-ene-7,21-dicarboxylic acid, 9,11-epoxy-17-hydroxy-3-oxo-, γ-lactone, methyl ester, (7α, 11α, 17β)-]
[1]; eight weeks
  gynecomastia: Gynecomastia was not observed
[1]; eight weeks, monotherapy or in combination with HCTZ
  safety and tolerability: safe and well tolerated
[1]; [3]
  DBP, change from Baseline to the Final Visit: dose-dependent decreases in DBP
  SBP, change from Baseline to the Final Visit: dose-dependent decreases in SBP
[2]; end of experiment (day 14), Epl 100 mg/kg/day p.o., ALDO 40 μg/kg/day in adrenalectomized rats
  HW/BW (cardiac hypertrophy index): significantly reduced cardiac hypertrophy
[2]; end of experiment, Epl 100 mg/kg/day p.o., ALDO 40 μg/kg/day in adrenalectomized rats
  SBP: not appreciably influenced
[2]; end of two-week treatment, eplerenone 100 mg/kg/day p.o.
  urinary protein excretion (24 hour): prevented the development of proteinuria
[2]; eplerenone 100 mg/kg/day p.o., vs L-NAME/Angiotensin II/NaCl
  cardiac injury / myocardial necrosis (histopathology): markedly reduced

Reference: patent US20070191324A1, “Methods for treatment or prophylaxis of aldosterone-mediated pathogenic effects in a subject using an epoxy-steroidal aldosterone antagonist” (priority 1999, published 2007)
